{"source": "patent US4794123A", "about": "“Thiazolo- and thiazino- benzimidazoles and their use as anti-ulcer agents” (John Wyeth & Brother Limited, priority 1983, dated 1988)", "system": "rabbit isolated gastric glands", "experiment": "aminopyrine accumulation in rabbit isolated gastric glands (anti-secretory activity, H+/K+ ATPase inhibitors)", "type": "cell-based", "settings": "10^-4 M, % inhibition of the maximum response to the secretagogue; for inhibition at 100 µM: Oryctolagus cuniculus", "description": "Compounds of formula I were tested for anti-secretory activity by their ability to inhibit the highly specific proton transporting enzyme H^+ /K^+ ATPase.\nPotential H^+ /K^+ ATPase inhibitors were evaluated by a technique involving the measurements of aminopyrine accumulation in rabbit isolated gastric glands. Aminopyrine accumulates in acid-secreting cells; therefore, uptake of aminopyrine is increased by secretagogues and an inhibitor of acid secretion will reduce the response to one or more secretagogues depending upon its site of action. […] The following test procedure is used:\nRabbit gastric glands are isolated from gastric mucosa from the corpus region of the stomach by a method based on one described by Berglindh T., Obrink, K. J., Acta Physiol. Scand.\nResults are expressed as the % inhibition of the maximum response to the secretagogue induced by the test compound. An inhibitor of H^+ /K^+ ATPase would be expected to reduce the response to both secretagogues.", "key": {"[1]": {"settings": "14C-aminopyrine uptake stimulated by DBcAMP, read-out: % Inhibition to stimulation by DBcAMP"}, "[2]": {"settings": "14C-aminopyrine uptake stimulated by high K+, read-out: % Inhibition to stimulation by K+"}}, "note": "Where two headings read alike, the source gives them in different places."}
{"compound": "6-Ethoxy-2-(2-pyridyl)thiazolo[3,2-a]-benzimidazole and 7-ethoxy-2-(2-pyridyl)thiazolo[3,2-a]benzimidazole", "values": [{"measurement": "% Inhibition to stimulation by DBcAMP", "setting": "14C-aminopyrine uptake stimulated by DBcAMP", "result": 68, "unit": "%"}, {"measurement": "% Inhibition to stimulation by K+", "setting": "14C-aminopyrine uptake stimulated by high K+", "result": 162, "unit": "%"}]}
{"compound": "CCc1ccc(-c2cn3c(nc4ccccc43)s2)nc1", "note": "[2-(2-(5-Ethylpyridyl))thiazolo[3,2-a]-benzaimidazole]", "values": [{"measurement": "inhibition at 100 µM", "setting": "[1]", "result": 56, "unit": "%"}, {"measurement": "inhibition at 100 µM", "setting": "[2]", "result": 142, "unit": "%"}]}
{"compound": "c1ccc(-c2cccc(-c3cn4c(nc5ccccc54)s3)n2)cc1", "note": "[2-[2-(6-Phenylpyridyl)]thiazolo[3,2-a]benzimidazole]", "values": [{"measurement": "inhibition at 100 µM", "setting": "[1]", "result": 22, "unit": "%"}, {"measurement": "inhibition at 100 µM", "setting": "[2]", "result": 381, "unit": "%"}]}
